One data set deals with MCF7. As to the kind of experiment: Antiproliferative activity against human MCF7 cells assessed as cell viability at 10^-4 M after 6 hrs by MTT assay relative to control. In kind it is functional. The conditions noted are these: MCF7, 6 h, read-out: Activity. A general note: Tetrazolium assays rely on reduction of a dye to a coloured formazan, in cell work by metabolically active cells.

The nature of data set [1]: Antiproliferative activity against HEK293 cells assessed as cell viability at 10^-4 M after 6 hrs by MTT assay relative to control. In kind it is cell-based. The conditions noted are these: human, read-out: Activity.
A further data set concerns the target T1, Aromatase (Homo sapiens, UniProt P11511).
T1 sequence (P11511 whole entry): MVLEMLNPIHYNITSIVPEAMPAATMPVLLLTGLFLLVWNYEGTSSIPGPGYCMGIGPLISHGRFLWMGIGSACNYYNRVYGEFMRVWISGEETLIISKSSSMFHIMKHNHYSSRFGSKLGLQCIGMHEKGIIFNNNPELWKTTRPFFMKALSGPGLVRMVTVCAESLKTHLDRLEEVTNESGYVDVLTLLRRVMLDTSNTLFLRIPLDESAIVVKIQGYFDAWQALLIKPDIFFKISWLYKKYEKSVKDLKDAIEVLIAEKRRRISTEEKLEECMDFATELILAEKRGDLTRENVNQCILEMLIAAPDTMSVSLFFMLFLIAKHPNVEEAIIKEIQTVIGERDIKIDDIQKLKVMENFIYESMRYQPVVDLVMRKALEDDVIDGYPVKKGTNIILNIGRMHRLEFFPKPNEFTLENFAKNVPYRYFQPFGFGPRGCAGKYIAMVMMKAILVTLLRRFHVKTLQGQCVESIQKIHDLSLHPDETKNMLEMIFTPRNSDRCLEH

Where only a bound is given, the exact number is not on record here.

Description for Aromatase: Inhibition of aromatase (unknown origin)

For the compound `c1cnc(-c2nc(-c3cc4ccccc4s3)cs2)nc1`, in the data set on MCF7, the viability at 100 µM stood at 120%. Also, the viability at 6 h, 100 µM in data set [1] was determined as 83.5%.

In the case of `c1ccc(-c2nsc(-c3ccccc3)n2)cc1`, at Aromatase, the half-inhibitory concentration (IC50) is over 50000 nM. For the compound `c1cnc(-c2nc(-c3ccco3)cs2)nc1`, the viability at 100 µM in the data set with MCF7 was determined as 76%. Also, the viability at 6 h, 100 µM in data set [1] turned out to be 59%. With `c1cnc(-c2nc(-c3cccs3)cs2)nc1`, the viability at 100 µM in the data set on MCF7 is 136%. The viability at 6 h, 100 µM in data set [1] amounted to 77%. Taken in the same sequence, the figures for `COc1ccc(O)c(-c2csc(-c3ncccn3)n2)c1` were 208% and 81.3%.

Take `COc1ccccc1-c1csc(-c2ncccn2)n1`: the viability at 100 µM in the data set with MCF7 came out at 130%. Further, in data set [1], the viability at 6 h, 100 µM came out at 87%. `c1cncc(-c2csc(-c3cccnc3)n2)c1` yielded an IC50 against Aromatase of 4 nM. Take `c1ccc(-c2csc(-c3ncccn3)n2)nc1`: the viability at 100 µM in the data set on MCF7 was 74.2%. For the same compound, in data set [1], the viability at 6 h, 100 µM amounted to 101%. Taken in the same sequence, the figures for `Cn1c(-c2csc(-c3ncccn3)n2)nc2ccccc21` were 128% and 102%. `c1cnc(-c2nc(-c3cc4ccccc4o3)cs2)nc1`: the viability at 100 µM in the data set on MCF7 was found to be 131%. For the same compound, the viability at 6 h, 100 µM in data set [1] was 108%.

Consider `Clc1cccc(-c2csc(-c3ncccn3)n2)c1`, for which the viability at 100 µM in the data set on MCF7 stood at 86.9%. Besides, the viability at 6 h, 100 µM in data set [1] came out at 107%.

In the case of `Oc1ccccc1-c1csc(-c2ncccn2)n1`, the viability at 100 µM in the data set with MCF7 turned out to be 129%. The viability at 6 h, 100 µM in data set [1] was found to be 131%. With `c1cnc(-c2nc(-c3ccncc3)cs2)nc1`, the viability at 100 µM with MCF7 turned out to be 76.6%. In data set [1], the viability at 6 h, 100 µM is 101%. Regarding `COc1cccc(-c2csc(-c3ncccn3)n2)c1`, the viability at 100 µM with MCF7 was 137%. Further, the viability at 6 h, 100 µM in data set [1] was 95%. Taken in the same sequence, the figures for `c1cnc(-c2nc(-c3cccnc3)cs2)nc1` were 75.5% and 89%. Taken in the same sequence, the figures for `Oc1ccc(-c2csc(-c3ncccn3)n2)cc1` were 227% and 94%. Taken in the same sequence, the figures for `Cc1ccc(O)c(-c2csc(-c3ncccn3)n2)c1` were 195% and 91.8%.

On to `Oc1cccc(-c2csc(-c3ncccn3)n2)c1`, for which the viability at 100 µM in the data set with MCF7 worked out at 112%. Moreover, in data set [1], the viability at 6 h, 100 µM stood at 113%. With `Oc1ccc(Cl)cc1-c1csc(-c2ncccn2)n1`, in the data set on MCF7, the viability at 100 µM is 162%. Besides, the viability at 6 h, 100 µM in data set [1] was found to be 78%. Consider `Clc1ccccc1-c1csc(-c2ncccn2)n1`, for which, in the data set on MCF7, the viability at 100 µM was determined as 125%. Further, the viability at 6 h, 100 µM in data set [1] came to 89.4%. Taken in the same sequence, the figures for `c1cnc(-c2nc(-c3nc4ccccc4s3)cs2)nc1` were 60.7% and 117%. Taken in the same sequence, the figures for `COc1ccc(-c2csc(-c3ncccn3)n2)cc1` were 127% and 101%.

In turn, `c1cncc(-c2nsc(-c3cccnc3)n2)c1` came in with a half-maximal inhibitory concentration (IC50) at Aromatase of 240 nM. Take `Clc1ccc(-c2csc(-c3ncccn3)n2)cc1`: in the data set with MCF7, the viability at 100 µM is 146%. The viability at 6 h, 100 µM in data set [1] was 101%.

By IC50 is commonly meant the concentration needed to halve the response being measured.

Source of the values: ChEMBL document CHEMBL4219133, “Studies on non-steroidal inhibitors of aromatase enzyme; 4-(aryl/heteroaryl)-2-(pyrimidin-2-yl)thiazole derivatives” (Bioorg Med Chem, 2018).
